For the assay, the target named is T1, human LOXL2 (Homo sapiens, UniProt Q9Y4K0).
T1 construct: expressed in transfected cells; secreted protein in 10-20x concentrated conditioned media
T1 sequence (Q9Y4K0 26-774): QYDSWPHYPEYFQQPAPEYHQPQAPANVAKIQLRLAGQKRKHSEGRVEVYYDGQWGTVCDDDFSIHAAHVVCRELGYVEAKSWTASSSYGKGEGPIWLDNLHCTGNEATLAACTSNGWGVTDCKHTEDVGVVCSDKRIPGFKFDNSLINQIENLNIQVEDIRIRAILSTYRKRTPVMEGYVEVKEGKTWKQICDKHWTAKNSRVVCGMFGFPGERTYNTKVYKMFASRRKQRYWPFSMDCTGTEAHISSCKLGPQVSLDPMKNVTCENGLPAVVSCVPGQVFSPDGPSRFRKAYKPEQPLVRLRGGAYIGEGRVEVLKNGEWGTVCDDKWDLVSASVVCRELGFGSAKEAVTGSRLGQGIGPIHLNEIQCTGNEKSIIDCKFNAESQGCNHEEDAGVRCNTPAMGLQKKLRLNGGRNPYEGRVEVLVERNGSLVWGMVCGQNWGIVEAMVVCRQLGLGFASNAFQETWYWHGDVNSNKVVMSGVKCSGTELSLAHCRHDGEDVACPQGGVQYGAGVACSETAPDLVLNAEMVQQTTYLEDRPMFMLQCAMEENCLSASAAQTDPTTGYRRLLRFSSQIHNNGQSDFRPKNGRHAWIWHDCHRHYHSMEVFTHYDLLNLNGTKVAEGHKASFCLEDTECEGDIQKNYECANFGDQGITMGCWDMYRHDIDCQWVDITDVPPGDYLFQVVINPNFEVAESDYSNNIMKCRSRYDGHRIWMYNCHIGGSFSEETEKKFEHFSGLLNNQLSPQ
The assay can be described thus: Human LOXL2 Amine Oxidase Activity Assay (Amplex Red fluorescence). Format: biochemical. As to conditions: concentrated conditioned media from CHO cells stably expressing human LOXL2, test compound incubated 2 h at 37° C., pH8, DAP substrate. The protocol:
Example B-1: Human LOXL2 Amine Oxidase Activity Assay
LOXL2 amine oxidase activity is evaluated by measuring Amplex Red fluorescence using 10-20× concentrated conditioned media from CHO cells stably expressing human LOXL2. To assay for amine oxidase activity, 10 μL of the concentrated conditioned media is incubated with 2 μL of test compound in DMSO and 73 μL Assay Buffer (50 mM Borate Buffer, pH8) for 2 h at 37° C. After the 2 h incubation, 5 μl of 10 mM 1,5-Diaminopentane (DAP) diluted in Assay Buffer and 10 μl of Amplex Red Mix (8.5 μl Assay Buffer+0.5 μl of 10 mM Amplex Red+1 μl of 500 U/ml Horseradish Peroxidase) are added and the plate mixed and immediately placed on the FlexStaion for fluorescence measurements. Fluorescence is read in kinetic mode every 2 min for 1 hour at excitation=544 and emission=590. The amine oxidase activity is calculated from the slope of the linear portion of the curve.

Each structure is given as a SMILES string. Counter-ions that a name gives are not always drawn.

In the case of `COc1ccc2oc(CN)cc(=O)c2c1` [Compound 1-27, 2-(Aminomethyl)-6-methoxy-4H-chromen-4-one hydrochloride], the IC50 (as a rule, the concentration needed to halve the response being measured) is under 300 nM.
With `NCc1cc(=O)c2ccc(OCc3ccc4ccccc4n3)cc2o1` [Compound 1-65, 2-(Aminomethyl)-7-(quinolin-2-ylmethoxy)-4H-chromen-4-one hydrochloride] the figure was under 300 nM; with `NCc1cc(=O)c2ccc(-n3cccn3)cc2o1` [Compound 1-11, 2-(Aminomethyl)-7-(1H-pyrazol-1-yl)-4H-chromen-4-one hydrochloride], under 300 nM.
As for `NCc1cc(=O)c2ccc(Nc3cccc(C(=O)Nc4ccccc4)c3)cc2o1` [Compound 1-49, 3-((2-(Aminomethyl)-4-oxo-4H-chromen-7-yl)amino)-N-phenylbenzamide hydrochloride], the IC50 was under 300 nM.
For `CC(C)COc1ccc2c(=O)cc(CN)oc2c1` [Compound 1-44, 2-(Aminomethyl)-7-isobutoxy-4H-chromen-4-one hydrochloride], the IC50 was under 300 nM.
Take `NCc1cc(=O)c2cc(-c3cn(Cc4ccccc4)nn3)ccc2o1` [Compound 1-15, 2-(Aminomethyl)-6-(1-benzyl-1H-1,2,3-triazol-4-yl)-4H-chromen-4-one hydrochloride]: the IC50 is under 300 nM.
`NCc1cc(=O)c2ccc(N3CCN(c4ccccc4)CC3)cc2o1` [Compound 1-40, 2-(Aminomethyl)-7-(4-phenylpiperazin-1-yl)-4H-chromen-4-one hydrochloride] returned an IC50 of under 300 nM.
Regarding `COc1ccc2c(=O)cc(CN)oc2c1` [Compound 1-28, 2-(Aminomethyl)-7-methoxy-4H-chromen-4-one hydrochloride], the concentration for half-maximal inhibition (IC50) was under 300 nM.
In turn, `NCc1cc(=O)c2ccc(O)cc2o1` [Compound 1-43, 2-(Aminomethyl)-7-hydroxy-4H-chromen-4-one hydrochloride] registered an IC50 of 300 to 1000 nM.
In the case of `NCc1cc(=O)c2cc(-n3cccn3)ccc2o1` [Compound 1-10, 2-(Aminomethyl)-6-(1H-pyrazol-1-yl)-4H-chromen-4-one hydrochloride], the IC50 was under 300 nM.
`NCc1cc(=O)c2ccc(OCc3cn(-c4ccccc4)nn3)cc2o1` [Compound 1-47, 2-(Aminomethyl)-7-((1-phenyl-1H-1,2,3-triazol-4-yl)methoxy)-4H-chromen-4-one hydrochloride] registered a half-inhibitory concentration (IC50) of under 300 nM.
Consider `NCc1cc(=O)c2cc(OCc3ccccc3)ccc2o1` [Compound 1-30, 2-(Aminomethyl)-6-(benzyloxy)-4H-chromen-4-one hydrochloride], for which the IC50 was under 300 nM.
Molecule `NCc1cc(=O)c2cc(C(=O)N3CCC(C(=O)O)C3)ccc2o1` (single isomer, unassigned) [Compound 1-38, (R) or (S)-1-(2-(Aminomethyl)-4-oxo-4H-chromene-6-carbonyl)pyrrolidine-3-carboxylic Acid hydrochloride] showed a half-inhibitory concentration (IC50) of over 1000 nM.
To `C=C(C)C#Cc1ccc2oc(CN)cc(=O)c2c1` [Compound 1-5, 2-(Aminomethyl)-6-(3-methylbut-3-en-1-yn-1-yl)-4H-chromen-4-one trifluoroacetate] belongs under 300 nM; to `NCc1cc(=O)c2cccc(OCc3cccc(C(=O)Nc4ccccc4)c3)c2o1` [Compound 1-58, 3-(((2-(Aminomethyl)-4-oxo-4H-chromen-8-yl)oxy)methyl)-N-phenylbenzamide hydrochloride], over 1000 nM; to `NCc1cc(=O)c2cccc(OCCc3ccccc3)c2o1` [Compound 1-55, 2-(Aminomethyl)-8-phenethoxy-4H-chromen-4-one hydrochloride], 300 to 1000 nM.
To `NCc1cc(=O)c2cccc(O)c2o1` [Compound 1-52, 2-(Aminomethyl)-8-hydroxy-4H-chromen-4-one hydrochloride] belongs 300 to 1000 nM; to `NCc1cc(=O)c2cc(C(=O)N3CCCCC3)ccc2o1` [Compound 1-19, 2-(Aminomethyl)-6-(piperidine-1-carbonyl)-4H-chromen-4-one hydrochloride], 300 to 1000 nM.
With `NCc1cc(=O)c2cccc(OCCOc3ccccc3)c2o1` [Compound 1-56, 2-(Aminomethyl)-8-(2-phenoxyethoxy)-4H-chromen-4-one hydrochloride] the figure was over 1000 nM; with `NCc1cc(=O)c2ccc(OCc3ccccc3)cc2o1` [Compound 1-29, 2-(Aminomethyl)-7-(benzyloxy)-4H-chromen-4-one hydrochloride], under 300 nM.
`NCc1cc(=O)c2cccc(OCc3ccccc3)c2o1` [Compound 1-54, 2-(Aminomethyl)-8-(benzyloxy)-4H-chromen-4-one hydrochloride]: the IC50 fell in the range of 300 to 1000 nM.
The molecule `C#Cc1cccc2c(=O)cc(CN)oc12` [Compound 1-51, 2-(Aminomethyl)-8-ethynyl-4H-chromen-4-one hydrochloride] had an IC50 of over 1000 nM.
To `NCc1cc(=O)c2cc(C(=O)N3CC[C@@H](N)C3)ccc2o1` [Compound 1-23, (R)-2-(Aminomethyl)-6-(3-aminopyrrolidine-1-carbonyl)-4H-chromen-4-one dihydrochloride] belongs 300 to 1000 nM.
The molecule `C#Cc1ccc2oc(CN)cc(=O)c2c1` [Compound 1-3, 2-(Aminomethyl)-6-ethynyl-4H-chromen-4-one hydrochloride] gave an IC50 of under 300 nM.
To `NCc1cc(=O)c2cc(C(=O)NCCS(N)(=O)=O)ccc2o1` [Compound 1-22, 2-(Aminomethyl)-4-oxo-N-(2-sulfamoylethyl)-4H-chromene-6-carboxamide hydrochloride] belongs 300 to 1000 nM.
To `NCc1cc(=O)c2ccc(N3CCCc4ccccc43)cc2o1` [Compound 1-42, 2-(Aminomethyl)-7-(3,4-dihydroquinolin-1(2H)-yl)-4H-chromen-4-one hydrochloride] belongs under 300 nM; to `NCc1cc(=O)c2cc(C(=O)N3C[C@H](O)[C@@H](F)C3)ccc2o1` [Compound 1-60, 2-(Aminomethyl)-6-((3S,4S)-3-fluoro-4-hydroxypyrrolidine-1-carbonyl)-4H-chromen-4-one hydrochloride], 300 to 1000 nM.
Turning to `COC(=O)[C@H]1CCN(C(=O)c2ccc3oc(CN)cc(=O)c3c2)C1` [Compound 1-36, Methyl (S)-1-(2-(aminomethyl)-4-oxo-4H-chromene-6-carbonyl)pyrrolidine-3-carboxylate hydrochloride], the IC50 is over 1000 nM.
The molecule `NCc1cc(=O)c2cc(N3CC[C@H](O)C3)ccc2o1` [Compound 1-20, (S)-2-(Aminomethyl)-6-(3-hydroxypyrrolidin-1-yl)-4H-chromen-4-one hydrochloride] had an IC50 of 300 to 1000 nM.
`NCc1cc(=O)c2cc(C(=O)NCCO)ccc2o1` [Compound 1-59, 2-(Aminomethyl)-N-(2-hydroxyethyl)-4-oxo-4H-chromene-6-carboxamide hydrochloride] registered an IC50 of 300 to 1000 nM.
Molecule `Cn1cc(-c2ccc3oc(CN)cc(=O)c3c2)nn1` [Compound 1-13, 2-(Aminomethyl)-6-(1-methyl-1H-1,2,3-triazol-4-yl)-4H-chromen-4-one hydrochloride] displayed an IC50 of under 300 nM.
As to `NCc1cc(=O)c2cccc(OCC(=O)Nc3ccccc3)c2o1` [Compound 1-57, 2-((2-(Aminomethyl)-4-oxo-4H-chromen-8-yl)oxy)-N-phenylacetamide hydrochloride], the IC50 lay within 300 to 1000 nM.

(Values after patent publication US20180215727A1, “LYSYL OXIDASE-LIKE 2 INHIBITORS AND USES THEREOF” (PharmAkea, Inc., priority 2015, published 2018).)
